Experimental data taken from patent publication US8846750B2, “Pharmaceutical and food compositions for preventing or treating diabetes or obesity” (Korea Ocean Research and Development Institute, priority 2010, dated 2014).

Assay: Solubility in water
Format: physicochemical
Conditions: dissolved in water
Protocol: 10 mg (22 umol) of the lobaric acid obtained in Example 1-2 was dissolved in 3 ml of acetone, and 50 ul of 1M NaHCO3 was added thereto, followed by stirring for 1-2 minutes. The solid precipitated on adding the NaHCO3 was filtered out, immediately after which it was completely concentrated by a rotary evaporator. After completion of the concentration, sodium lobarate (<10 mg) could be obtained as a white solid. Then, in order to remove excess salt from the product to increase the purity, the product was analyzed by reverse phase HPLC using Agilent Eclipse XDB-C18 column (4.6×150 mm, USA). The solvent system used in the analysis was composed of line A and line B which supplied 0.1% formic acid-containing water and 0.1% formic acid-containing acetonitrile, respectively. The elution conditions were as follows: 40% to 50% acetonitrile for 5 min; 50% to 80% acetonitrile for 15 min; and 80% to 90% acetonitrile for 10 min. The final purity was 92.1% (see FIG. 1).

water solubility: water-soluble
SMILES: CCCCCc1c2c(cc(O)c1C(=O)[O-])OC(=O)c1c(cc(OC)cc1C(=O)CCCC)O2.[Na+] [sodium lobarate]
